In ChEMBL document CHEMBL1158232, “Isolation of Polyhydroxysteroids from the Gorgonian Acabaria undulata” (J Nat Prod, 1996):
Calls of active or inactive are those of the source. No cut-off for these calls is given here.

Assays:
P388 = test: Cytotoxicity against mouse P388 cells; assay type: functional, cell-based
Phospholipase A2 [1] = molecular target: T1, Phospholipase A2 (Homo sapiens, UniProt P04054); test: Inhibition of PLA2
Target sequence in this assay (P04054 whole entry): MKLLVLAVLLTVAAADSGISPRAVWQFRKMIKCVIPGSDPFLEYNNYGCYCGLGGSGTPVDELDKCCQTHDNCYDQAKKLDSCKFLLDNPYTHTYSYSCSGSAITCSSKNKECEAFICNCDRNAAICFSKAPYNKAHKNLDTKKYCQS

DLD-1 = test: Cytotoxicity against human DLD1 cells; assay type: functional, cell-based
Phospholipase A2 [2] = molecular target: T1, Phospholipase A2; test: Inhibition of PLA2 at 100 uM
Target sequence in this assay (P04054 23-148 limits assumed): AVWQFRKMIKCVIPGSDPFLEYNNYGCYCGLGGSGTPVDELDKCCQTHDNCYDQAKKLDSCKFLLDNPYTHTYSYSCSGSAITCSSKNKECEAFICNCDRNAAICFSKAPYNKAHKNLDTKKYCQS

IC50 (Phospholipase A2 [1]) [µM] | Activity (Phospholipase A2 [2]) | SMILES | IC50 (P388) [µM] | IC50 (DLD-1) [µM]
21.5 | – | CC(C)/C=C/[C@@H](C)[C@H]1CC[C@@H]2[C@]1(C)CC[C@H]1[C@@]23O[C@@H]3[C@H](O)[C@@]2(O)C[C@@H](O)CC[C@]12C | 28.7 | 24.6
– | inactive | CC(=O)O[C@H]1CC[C@]2(C)[C@H]3CC[C@]4(C)[C@@H]([C@H](C)/C=C/CC(C)C)CC[C@H]4[C@]34O[C@@H]4[C@H](OC(C)=O)[C@@]2(O)C1 | 11.6 | 12.6
13.8 | – | CC(C)CCC[C@@H](C)[C@H]1CC[C@@H]2[C@]1(C)CC[C@H]1[C@@]23O[C@@H]3[C@H](O)[C@@]2(O)C[C@@H](O)CC[C@]12C | 17.9 | 19.6
– | inactive | CC(C)C(C)/C=C/[C@@H](C)[C@H]1CC[C@@H]2[C@]1(C)CC[C@H]1[C@@]23O[C@@H]3[C@H](O)[C@@]2(O)C[C@@H](O)CC[C@]12C (some centres not stated) | 20.2 | 22.4
